Patent publication EP2739296B1, “PLANT MATERIAL FROM OXYDENDRUM ARBOREUM FOR COSMETIC USE” (Sederma, priority 2011, dated 2013)

Key:
Format in all cases: cell-based
Human melanocytes = assay: Melanin synthesis in human melanocytes; conditions: positive control, concentration not given; 5 days of culture; n=5; p<0.01
Procedure: Human melanocytes were seeded in 24-well plates. After 24 h of attachment, the cells are in contact with the test products. After 5 days of culture, the layers are rinsed, the total melanins are extracted in sodium hydroxide and assayed spectrophotometrically at 490 nm. For tyrosinase, an identical culture protocol is followed and then the enzyme is extracted from the cells and DOPA oxidase activity is measured spectrophotometrically at 37°C with a solution of L-DOPA to 0.2%. The data are normalized using a viability assay. Table 9: inhibition of melanogenese in the presence of the extract of Oxydendrum arboreum cell culture compared with control. (n=5)

tyrosinase = biological target: T1, tyrosinase (Homo sapiens, UniProt P14679); assay: Tyrosinase (DOPA oxidase) activity extracted from human melanocytes; conditions: positive control, concentration not given; 5 days of culture; n=5; p<0.01
T1 sequence (P14679 19-529): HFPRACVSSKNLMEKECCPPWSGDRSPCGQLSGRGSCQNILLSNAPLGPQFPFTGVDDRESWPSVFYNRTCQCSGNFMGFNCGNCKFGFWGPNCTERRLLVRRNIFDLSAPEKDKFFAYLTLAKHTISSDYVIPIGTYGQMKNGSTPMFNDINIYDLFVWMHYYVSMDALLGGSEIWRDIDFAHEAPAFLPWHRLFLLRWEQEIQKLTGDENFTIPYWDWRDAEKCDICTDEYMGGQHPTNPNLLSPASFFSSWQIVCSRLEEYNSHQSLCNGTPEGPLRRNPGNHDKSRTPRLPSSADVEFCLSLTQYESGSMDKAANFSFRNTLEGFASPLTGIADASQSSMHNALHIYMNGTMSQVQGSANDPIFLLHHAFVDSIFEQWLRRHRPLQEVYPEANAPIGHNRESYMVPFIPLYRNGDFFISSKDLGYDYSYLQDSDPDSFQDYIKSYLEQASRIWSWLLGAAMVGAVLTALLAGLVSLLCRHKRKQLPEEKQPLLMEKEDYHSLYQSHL

collagen I = assay: Collagen I synthesis by normal human fibroblasts (immuno-labeling); conditions: positive control, concentration not given; NHF, 7 days; p<0.01
Procedure: Normal human fibroblasts (NHF) are cultivated in plate MW24 for 24 hours. The cells are in contact or not of test products at various concentrations for 7 days. The synthesis of collagen I is then quantified by immuno-labeling fixed on the layer. Table 7: increase of collagen I on NHF in the presence of the extract of Oxydendrum arboretum cell culture compared with control. (n=4 wells/ 20 photos)

Row | SMILES | Melanin (% Change / Control) (Human melanocytes) [%] | Tyrosinase (% Change / Control) (tyrosinase) [%] | Collagen I Synthesis % change / control (collagen I)
1 | OC[C@H]1O[C@@H](Oc2ccc(O)cc2)[C@H](O)[C@@H](O)[C@@H]1O [Arbutin] | -56 | -48 | 
2 | O=C1O[C@H]([C@@H](O)CO)C(O)=C1O [Vitamin C] |  |  | +236% ; p<0.01
